Data on 7 molecules can be found in patent US6916851B2, “Skin care cosmetic methods of sebum control using carboxyalkylates of branched alcohols and/or alkoxylates thereof” (Unilever Home & Personal Care USA, a division of Conopco, …, priority 2002, dated 2005).

The test deals with human sebocytes. Put plainly: Inhibition of sebocyte lipogenesis (14C-acetate label remaining in sebocytes). In kind it is cell-based. The note with it: for radioactive label remaining in the sebocytes, % of Control / IC50: 20 hour incubation, 96 well plate; for radioactive label remaining in the sebocytes, % of Control: lower = greater inhibition of lipogenesis; for IC50: read-out: IC 50 (concentration which provides a 50% sebum suppression relative to the control); for inhibition of lipogenesis, in words: all tested concentrations (1, 10, 100 μM). As for the experimental part: Secondary cultures of human sebocytes obtained from an adult […] were grown in 96-well tissue culture plates (Packard Co.; Meriden, Conn.) until confluent. Sebocyte growth medium consisted of Clonetics Keratinocyte Basal Medium (KBM) supplemented with 14 μg/ml bovine pituitary extract, 0.4 μg/ml hydrocortisone, 5 μg/ml insulin, 10 ng/ml epidermal growth factor, 1.2×10^−10 M cholera toxin, 100 units/ml penicillin, and 100 μg/ml streptomycin. All cultures were incubated at 37° C. in the presence of 7.5% CO2. Medium was changed three times per week.
On the day of experimentation, the growth medium was removed and the sebocytes washed three times with sterile Dulbecco's Modified Eagle Medium (DMEM; phenol red free). Fresh DMEM was added to each sample (duplicates, triplicates, or quadruplicates depending on the experiment) with 5 μL of test agent solubilized in ethanol or sterile, distilled water. Controls consisted of addition of ethanol alone or phenol red. Phenol Red, a known sebum suppressive agent, was employed as a positive control.
Each plate was returned to the incubator for 20 hours followed by the addition of ^14C-acetate buffer (5 mM final concentration, 56 mCi/mmol specific activity). Sebocytes were returned to the incubator for four hours after which each culture was rinsed three times with phosphate buffered saline to remove unbound label. Radioactive label remaining in the sebocytes was harvested and counted using a TopCount-NXT brand scintillation counter (Packard Co., Meriden, Conn.).
The results that were obtained, expressed in terms of amount of radioactive label remaining in the sebocytes as a percent of control, are summarized in Table 2. A lower radioactive label, i.e. a lower % of control, indicates a greater inhibition of sebocyte lipogenesis.
The experiments were conducted using the procedure set forth in the Example 3 above, with the concentrations of the compounds varied, in order to determine the concentration for each compound tested which provide a 50% sebum suppression.

Marks after values point to notes of the source that are not given here.

Regarding `O=S1(=O)OC(c2ccc(O)cc2)(c2ccc(O)cc2)c2ccccc21` [Phenol Red], the “radioactive label remaining in the sebocytes, % of Control” value (100 μM) is 46.3* % of Control.
For the molecule C13 isoalcohol [Compound 4], the IC50 came to 100 µM.
Regarding C13 isoalcohol glycerol [Compound 5], the IC50 is over 100 µM.
As to “C13 isoalcohol oxypropyl amine [Compound 3]”, the IC50 was about 100 µM.
“C13 isoalcohol propionitrile [Compound 2]”: the IC50 is over 100 µM.
Consider “iso-tridecyloxy propionic acid [Compound 1]”, for which the “inhibition of lipogenesis, in words” value was “enhanced inhibition of lipogenesis at all tested concentrations” and the IC50 was 5 µM. In addition, the “radioactive label remaining in the sebocytes, % of Control” value (1 μM) is recorded as 48.7* % of Control. Also, the “radioactive label remaining in the sebocytes, % of Control” value (10 μM) is 34.6* % of Control. Besides, the “radioactive label remaining in the sebocytes, % of Control” value (100 μM) is given as 11.9* % of Control. Further, the “effectiveness in inhibition of lipogenesis relative to TDCM” value (comparison of Table 2 data) is “almost twice as effective as TDCM”. In addition, the “activity as sebum suppressant relative to the branched alcohol from which it is derived” value (from IC50 of Table 3) was “about 20 times”.
For the molecule tridecylcarboxymethylate [TDCM], the “inhibition of lipogenesis, in words” value was “enhanced inhibition of lipogenesis at all tested concentrations”. Besides, under “1 μM”, the “radioactive label remaining in the sebocytes, % of Control” value is 84.8* % of Control. In addition, the “radioactive label remaining in the sebocytes, % of Control” value (10 μM) was 43.4* % of Control. Besides, the “radioactive label remaining in the sebocytes, % of Control” value (100 μM) was 22.8* % of Control.
